Data taken from the NIST ThermoML archive (doi:10.1021/je060052p).
± gives the expanded uncertainty stated by the source.

How the values were obtained:
[1] = Liquid; for mass density / speed of sound: 298.15 K, 101.33 kPa; for vapor or sublimation pressure: Ebulliometric method (Recirculating still)
[2] = refractive index (Na D-line) (dimensionless); conditions: 298.15 K; 101.33 kPa; Liquid
[3] = refractive index (Na D-line) (dimensionless); xn = mol fraction of the nth substance listed; conditions: 298.15 K, 101 kPa, Liquid
[4] = xn = mol fraction of the nth substance listed; conditions: 298.15 K, 101 kPa, Liquid

CCOC(=O)C(C)O (racemic) [DL-ethyl lactate]
Conditions	mass density [kg/m3]	refractive index	speed of sound [m/s]
[1]	1028.02 ± 0.27	–	1277 ± 3
[2]	–	1.4105 ± 0.0012	–

Conditions	vapor or sublimation pressure [kPa]
[1], 424.98 K	101.3 ± 1

CCOC(=O)C(C)O (stereo not drawn) [DL-ethyl lactate] + CCOC(C)=O
Conditions	mass density, [4] [kg/m3]	refractive index, [3]	speed of sound, [4] [m/s]
x2 = 0.049	1022.5 ± 0.34	1.4088 ± 0.0012	1267 ± 3
x2 = 0.1	1016.77 ± 0.34	1.40722 ± 0.0012	1263 ± 3
x2 = 0.15	1010.85 ± 0.34	1.40535 ± 0.0012	1256 ± 3
x2 = 0.2	1004.94 ± 0.34	1.40357 ± 0.0012	1249 ± 3
x2 = 0.251	998.8 ± 0.34	1.40168 ± 0.0012	1243 ± 3
x2 = 0.3	992.68 ± 0.35	1.40005 ± 0.0012	1236 ± 3
x2 = 0.35	986.4 ± 0.36	1.39819 ± 0.0012	1229 ± 3
x2 = 0.4	979.87 ± 0.36	1.39623 ± 0.0012	1222 ± 3
x2 = 0.45	973.59 ± 0.36	1.39451 ± 0.0012	1215 ± 3
x2 = 0.5	966.98 ± 0.37	1.39263 ± 0.0012	1208 ± 3
x2 = 0.55	960.41 ± 0.38	1.3906 ± 0.0012	1201 ± 3
x2 = 0.6	953.46 ± 0.39	1.38855 ± 0.0012	1194 ± 3
x2 = 0.65	946.64 ± 0.4	1.38645 ± 0.0013	1188 ± 3
x2 = 0.7	939.6 ± 0.41	1.3842 ± 0.0013	1180 ± 3
x2 = 0.756	931.41 ± 0.42	1.38126 ± 0.0013	1173 ± 3
x2 = 0.8	924.84 ± 0.42	1.37923 ± 0.0013	1167 ± 3
x2 = 0.849	917.72 ± 0.43	1.37694 ± 0.0013	1160 ± 3
x2 = 0.9	910.03 ± 0.44	1.3747 ± 0.0013	1153 ± 3
x2 = 0.95	902.37 ± 0.45	1.3722 ± 0.0013	1145 ± 3

CCOC(=O)C(C)O (stereo not drawn) [DL-ethyl lactate] + COC(C)=O
Conditions	mass density, [4] [kg/m3]	refractive index, [3]	speed of sound, [4] [m/s]
x2 = 0.058	1024.62 ± 0.28	1.40872 ± 0.0012	1272 ± 3
x2 = 0.1	1021.03 ± 0.27	1.40699 ± 0.0012	1266 ± 3
x2 = 0.15	1017.3 ± 0.26	1.40595 ± 0.0012	1261 ± 3
x2 = 0.2	1013.63 ± 0.26	1.40379 ± 0.0012	1255 ± 3
x2 = 0.25	1009.78 ± 0.27	1.4023 ± 0.0012	1250 ± 3
x2 = 0.3	1005.46 ± 0.28	1.39968 ± 0.0013	1244 ± 3
x2 = 0.35	1001.13 ± 0.28	1.39787 ± 0.0012	1238 ± 3
x2 = 0.4	996.59 ± 0.28	1.39628 ± 0.0012	1232 ± 3
x2 = 0.45	992.2 ± 0.28	1.39379 ± 0.0013	1226 ± 3
x2 = 0.5	987.41 ± 0.29	1.39125 ± 0.0013	1220 ± 3
x2 = 0.55	982.34 ± 0.29	1.3879 ± 0.0013	1213 ± 3
x2 = 0.6	977.25 ± 0.3	1.38498 ± 0.0013	1207 ± 3
x2 = 0.65	972.03 ± 0.31	1.38197 ± 0.0013	1200 ± 3
x2 = 0.7	966.3 ± 0.32	1.37916 ± 0.0013	1193 ± 3
x2 = 0.75	960.47 ± 0.32	1.37601 ± 0.0013	1186 ± 3
x2 = 0.8	954.34 ± 0.33	1.37278 ± 0.0013	1180 ± 3
x2 = 0.85	947.87 ± 0.34	1.3696 ± 0.0013	1172 ± 3
x2 = 0.9	941.28 ± 0.35	1.36642 ± 0.0013	1164 ± 3
x2 = 0.95	934.27 ± 0.36	1.36248 ± 0.0013	1157 ± 3

CCOC(C)=O [ethyl acetate]
Conditions	mass density [kg/m3]	refractive index	speed of sound [m/s]
[1]	894.29 ± 0.34	–	1138 ± 3
[2]	–	1.36978 ± 0.0012	–

Conditions	vapor or sublimation pressure [kPa]
[1], 350.25 K	101.3 ± 1

COC(C)=O [methyl ethanoate]
Conditions	mass density [kg/m3]	refractive index	speed of sound [m/s]
[1]	926.96 ± 0.3	–	1148 ± 3
[2]	–	1.35865 ± 0.0012	–

Conditions	vapor or sublimation pressure [kPa]
[1], 330.03 K	101.3 ± 1
